One data set deals with T1, prostaglandin H synthase (Ovis aries, UniProt P05979).
T1 construct: H synthase from sheep seminal vesicles is obtained by the method described in the literature; from tissue; host or cells: sheep seminal vesicles
T1 sequence (P05979 25-600): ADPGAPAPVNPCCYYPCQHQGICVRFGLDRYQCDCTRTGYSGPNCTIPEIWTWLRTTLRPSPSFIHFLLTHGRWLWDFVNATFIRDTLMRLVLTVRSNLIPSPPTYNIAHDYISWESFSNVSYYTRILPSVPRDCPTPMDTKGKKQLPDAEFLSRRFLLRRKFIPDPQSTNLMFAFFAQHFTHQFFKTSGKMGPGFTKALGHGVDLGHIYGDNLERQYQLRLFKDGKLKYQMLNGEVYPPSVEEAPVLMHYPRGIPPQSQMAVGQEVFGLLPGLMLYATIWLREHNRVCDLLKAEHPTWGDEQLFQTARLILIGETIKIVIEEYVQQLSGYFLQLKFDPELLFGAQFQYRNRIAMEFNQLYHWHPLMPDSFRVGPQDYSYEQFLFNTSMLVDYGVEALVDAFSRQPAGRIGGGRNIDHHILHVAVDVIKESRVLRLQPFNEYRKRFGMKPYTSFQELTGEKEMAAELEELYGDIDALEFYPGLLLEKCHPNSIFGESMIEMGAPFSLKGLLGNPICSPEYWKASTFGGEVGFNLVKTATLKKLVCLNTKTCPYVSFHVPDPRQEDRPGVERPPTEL
Briefly: Inhibition of the activity of prostaglandin H synthase from sheep seminal vesicles. The class given is biochemical. The procedure: Prostaglanding H synthase from sheep seminal vesicles is obtained by the method described in the literature by Van der Oudaraa, F. J. G.; Buytenhek, M.; Methods Enzymol. 86, 60 (1982).
The enzyme activity is determined at 25° C. by polargraphic measurement of the oxygen consumption with a Clark electrode.
The measurement batch consists of […] ml^-1 of prostaglandin H synthase in 0.1 M Tris-HCl buffer pH=8.0, 5 mM tryptophan, 1 μM haemin and 0.124 mM arachidonic acid. The substances to be tested are dissolved in methylglycol and incubated with the enzyme in the absence of arachidonic acid for 10 minutes at 25° C. The enzyme reaction is started with arachidonic acid.
The titration curve of the inhibition and from this the concentration needed for 50% inhibition are determined by varying the active ingredient concentration.

The next data set deals with T2, 15-lipoxygenase (Oryctolagus cuniculus, UniProt P12530).
T2 construct: The lipoxygenase from rabbit reticulocytes is obtained in an electrophoretically and immunologically pure form; from tissue; host or cells: rabbit reticulocytes
T2 sequence (P12530 1-663): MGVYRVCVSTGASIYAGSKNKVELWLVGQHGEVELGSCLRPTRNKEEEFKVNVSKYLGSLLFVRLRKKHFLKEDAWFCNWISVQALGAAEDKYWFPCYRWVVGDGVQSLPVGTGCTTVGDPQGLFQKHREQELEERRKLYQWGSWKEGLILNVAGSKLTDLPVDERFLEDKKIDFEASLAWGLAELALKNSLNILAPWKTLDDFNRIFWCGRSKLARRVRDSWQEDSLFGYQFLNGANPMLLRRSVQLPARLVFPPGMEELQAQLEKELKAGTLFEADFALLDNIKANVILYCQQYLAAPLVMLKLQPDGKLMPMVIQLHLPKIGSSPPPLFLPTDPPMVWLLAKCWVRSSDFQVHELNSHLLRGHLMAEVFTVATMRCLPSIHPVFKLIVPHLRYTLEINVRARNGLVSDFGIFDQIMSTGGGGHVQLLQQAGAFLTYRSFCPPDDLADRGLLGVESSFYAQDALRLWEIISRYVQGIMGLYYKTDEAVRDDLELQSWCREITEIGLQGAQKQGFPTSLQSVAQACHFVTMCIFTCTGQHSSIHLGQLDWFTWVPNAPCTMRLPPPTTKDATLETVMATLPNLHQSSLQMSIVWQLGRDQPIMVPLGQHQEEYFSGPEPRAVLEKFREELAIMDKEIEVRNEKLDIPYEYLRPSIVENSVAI
Briefly: Inhibition of the activity of 15-lipoxygenase from rabbit reticulocytes. The data set is classed as biochemical. As to the method: The lipoxygenase from rabbit reticulocytes is obtained in an electrophoretically and immunologically pure form by the method described in the literature [S. M. Rapoport et al., Eur. J. Biochem. 96, 545 (1979]. The lipoxygenase activity is determined at 25° C. via amperometric measurement of the O2 consumption by means of a Clark electrode in the following system: 0.1 M potassium phosphate pH 7.4 containing 0.2% of sodium cholate and 0.53 mM linoleic acid. The enzyme concentration in the measurement bath is 25 nM. The substances to be tested are added as a solution in methylglycol (freshly distilled). […] The enzyme reaction is started by addition of sodium cholate and linoleic acid. The titration curve of the inhibition and from this the concentration needed for 50% inhibition are determined by varying the active ingredient concentration.

Data set [1] concerns isolated lung parenchyma strips. Nature of the data set: Arachidonic acid-induced contraction of isolated lung parenchyma strips. The data set is classed as cell-based, guinea-pig. As to conditions: for inhibition at 50 µM: 5×10^-5 M. As to the method:
Testing of antiasthmatic active qualities of triclosan and fenticlor in vitro is carried out on isolated tracheal spirals and lung parenchyma strips of adult guinea-pigs (250-500 g) of both sexes. The tracheal spirals are prepared by the method described by Constantine [J. W. Constantine et al., J. Pharm. Pharmacol. 17, 384 (1965)]. Particular emphasis is placed on complete removal of the surrounding connective tissue and on maintaining the integrity of the epithelium [N. A. Flavahan et al., J. Appl. Physiol. 58, 834 (1985)].
The lung parenchyma strip is prepared in accordance with the method described by Del Monte [L. Del Monte et a., Naunym-Schmiedebergs Arch. Pharmacol., 338, 417 (1988)]. The contraction of the isolated organs is determined as isotonic measurement of the path under standardised conditions [J. Slapke et al., Biomed. Biochim. Acta 42, 1309 (1983)] in a multiple organ bath.
A modified Krebs-Henseleit solution (pH=7.4) of the following composition is used for the studies (m×mol 1^-1): NaCl 134.8, KCl 5.9, Tris 10.02, CaCl2 1.82, MgCl2 1.145, glucose 1.11. Air is used for gassing. The bath temperature is 37° C. for the lung parenchyma strips and 35° C. for the tracheal spirals. Conditioning of the preparations is performed several times with 5×10^-4 M acetylcholine to obtain the standardisation value, this substance subsequently being flushed out. In all studies, the contractions are induced by addition of arachidonic acid to the organ bath in increasing concentrations and are measured cumulatively. All the measurements are made in the present of 5 μM indomethacin.

For data set [2] the following is noted: literature statement; G. B. Kasting et al. cited for the non-steroidal drugs; cited from earlier work.
Data set [3] deals with ovalbumin-induced bronchoconstriction. Briefly: Ovalbumin-induced bronchoconstriction in the ovalbumin-sensitised guinea-pig. The class given is in vivo. The procedure:
Guinea-pigs are sensitised i.p. with 10 μg of ovalbumin and 100 mg of aluminium hydroxide in 0.5 ml of isotonic saline solution by the method of Anderson [P. Anderson, Brit. J. Pharmacol. 77, 301 (1982)]. After 14 days, the conscious animals are given a booster by inhalation of a 0.1% strength atomised ovalbumin solution. Only animals with a positive reaction are used for comparison from the fourth day after the booster. Guinea-pigs with a body weight of 450-550 g are were anaesthetised with 1.3 g/kg of ethylurethane i.p. Thereafter, a cannula is connected to the trachea. The animals are relaxed with 0.2 mg/kg pancuronium bromide i.v. and respirated in a tank respirator (f=20/min, p.=3 pPa, I:E=1:1). The animals breath in air from the room by the tracheal cannula led to the outside. The tidal volume VT is measured pneumota- chographically. 1 mg/kg of ovalbumin in 300 μl of water is instilled intratracheally to induce the spasm [G. Becher et al., Z. Erkrankg., Arm.-org. 166, 223 (1986)].
Statistical analysis of the results is carried out with the parameter-free U-test according to Mann and Whitney, p.≤0.05.

In data set [4] the test system is arachidonic acid-induced bronchoconstriction. Nature of the data set: Arachidonic acid-induced bronchoconstriction in the guinea-pig. The class given is in vivo. As to the method: A bronchospasm is induced in non-sensitised guinea-pigs in the same experimental design as in Example 2 by intratracheal instillation of 2 mg/kg of Na arachidonate solution in phosphate buffer pH=7.4 [G. Becher et al., Z. Erkrankg. Atm.-org. 171, 85 (1988)].

The mark [5] stands for this setting: Cavia porcellus, 5 μM indomethacin.
Where [6] appears, read: 100 mg/kg p.o. 2 hours before, ovalbumin 1 mg/kg intratracheally.
[7] abbreviates: 100 mg/kg p.o. 2 hours before, Na arachidonate 2 mg/kg intratracheally.

These results are taken from patent US5185377A, “Diphenyl compounds which inhibit arachidonic acid metabolism, and their use in pharmaceutical compositions” (Ciba-Geigy Corporation, priority 1990, dated 1993).

The structures appear in SMILES notation. Like-named read-outs stand apart in the source and are kept apart here.

Take `Oc1c(Cl)cc(Cl)c(O)c1Cc1c(O)c(Cl)cc(Cl)c1O` [2,2'6,6'-Tetrahydroxy-3,3',5,5'-tetrachloro-diphenylmethane]: the IC50 worked out at 17 µM at prostaglandin H synthase and 3.6 µM at 15-lipoxygenase.
Consider `Oc1c(Cl)cc(Cl)c(Cl)c1Cc1c(O)c(Cl)cc(Cl)c1Cl` [2,2'-Dihydroxy-3,3',5,5',6,6'-hexachloro-diphenylmethane], for which the IC50 was 17 µM against prostaglandin H synthase and 3.5 µM against 15-lipoxygenase.
On to `Oc1c(Br)cc(Br)cc1Cc1cc(Br)cc(Br)c1O` [2,2'-Dihydroxy-3,3',5,5'-tetrabromo-diphenylmethane], for which the IC50 came to 45 µM at prostaglandin H synthase and 2.8 µM at 15-lipoxygenase.
On to `Oc1c(Cl)cc(Cl)cc1Cc1cc(Cl)cc(Cl)c1O` [2,2'-Dihydroxy-3,3',5,5'-tetrachloro-diphenylmethane], for which the IC50 at prostaglandin H synthase (25° C., pH=8.0, 0.124 mM arachidonic acid, 10 minutes preincubation, read-out: PG H synthase IC50) stood at 60 µM; on 15-lipoxygenase (25° C., pH 7.4, 0.53 mM linoleic acid, enzyme 25 nM, read-out: 15-LOX IC50) it was 9.5 µM.
Consider `Oc1c(Cl)cc(Br)cc1Cc1cc(Br)cc(Cl)c1O` [2,2'-Dihydroxy-3,3'-dichloro-5,5'-dibromo-diphenylmethane], for which the IC50 on prostaglandin H synthase was found to be 28 µM; on 15-lipoxygenase it was 3.8 µM.
In the case of `Cc1cc(Cc2ccccc2)cc(Cl)c1O` [2-Chloro-6-methyl-4-benzylphenol], the IC50 at prostaglandin H synthase was found to be 35 µM; against 15-lipoxygenase, 28 µM.
The matching figures for `Oc1c(Br)cc(Cc2cc(Br)c(O)c(Br)c2)cc1Br` [4,4'-Dihydroxy-3,3',5,5'-tetrabromo-diphenylmethane]: 17 µM and 5 µM.
On the same counts, the results for `Oc1c(Cl)cc(Cc2cc(Cl)c(O)c(Br)c2)cc1Br` [4,4'-Dihydroxy-3,3'-dibromo-5,5'-dichloro-diphenylmethane] are 180 µM and 10.5 µM.
On the same counts, the results for `Cc1cc(Cl)cc(Cc2ccccc2)c1O` [4-Chloro-2-methyl-6-benzylphenol] are 30 µM and 2.5 µM.
Usually inhibition stands for the relative decrease from the control value, in per cent. Read a high inhibition as a response far below the control. For `NC1=NN(c2cccc(C(F)(F)F)c2)CC1` [BW 755 C], in data set [1] (setting [5]), at 50 µM the inhibition was 50%.
For the molecule `Oc1ccc(Cl)cc1Cc1ccccc1` [chlorophene, 2-Benzyl-4-chlorophenol], the values for the IC50 against prostaglandin H synthase and on 15-lipoxygenase were 40 µM and 2 µM, respectively.
As for `O=C(O)Cc1ccccc1Nc1c(Cl)cccc1Cl` [diclofenac], the skin penetration entry in data set [2] is “inadequate skin penetration”.
Regarding `Oc1ccc(Cl)cc1Sc1cc(Cl)ccc1O` [fenticlor, 2,2'-dihydroxy-5,5'-dichloro-diphenyl sulfide], the figures for the “inhibition of the maximum bronchospasm” value in data set [3] (setting [6]) and in data set [4] (setting [7]) were 60% and 16.5%, respectively. Besides, the “time to return to the starting volume (tidal volume)” value in data set [3] (setting [6]) and in data set [4] (setting [7]) was 25 min throughout. Moreover, in data set [3] (fenticlor 100 mg/kg p.o. 2 hours before, in comparison with controls, p≤0.05), the “reduction of the allergic reaction (bronchoconstriction)” value was “reduced significantly”. For the same molecule, the IC50 at prostaglandin H synthase was found to be 15.5 µM; in data set [1] (Cavia porcellus, read-out: ID50), 5 µM; at 15-lipoxygenase, 1.4 µM. The “inhibition of the arachidonic acid-induced bronchoconstrictive reaction” value in data set [4] (fenticlor 100 mg/kg p.o. 2 hours before, U-test p≤0.05) is “inhibited significantly (parameter-free U-test according to Mann and Whitney, p≤0.05) from the fifth minute”.
With `COc1ccc2c(c1)c(CC(=O)O)c(C)n2C(=O)c1ccc(Cl)cc1` [indomethacin], the skin penetration result in data set [2] is listed as “inadequate skin penetration”.
For the molecule `CC(C(=O)O)c1cccc(C(=O)c2ccccc2)c1` (stereo not drawn) [ketoprofen], the skin penetration result in data set [2] is “inadequate skin penetration”.
Turning to `CN1CCC(=C2c3ccccc3CC(=O)c3sccc32)CC1` [ketotifen], in data set [1] (Cavia porcellus, 10^-6 M, 5 μM indomethacin), testing at 1 µM gave an inhibition of 25%.
`CC(Cc1ccc(O)c(O)c1)C(C)Cc1ccc(O)c(O)c1` (stereo not drawn) [nordihydroguarjiaretic acid] returned an inhibition at 50 µM in data set [1] (setting [5]) of 50%.
Consider `Oc1cc(Cl)ccc1Oc1ccc(Cl)cc1Cl` [triclosan, 2,4,4'-trichloro-2'-hydroxy-diphenyl ether], for which the IC50 against prostaglandin H synthase worked out at 23 µM; on 15-lipoxygenase it was 2.4 µM. In addition, the “inhibition of the arachidonic acid-induced contraction” value in data set [1] (10^-6 M triclosan, arachidonic acid 10^-7 -10^3 M (so in the source), 5 μM indomethacin) was “complete inhibition”. The “relaxation on isolated lung parenchyma strips” value in data set [1] (triclosan concentrations of >10^-6 M) is recorded as “pronounced dose-related relaxation”.
